# From patent US10294202B2, “Pyrrolidinones as herbicides” (FMC Corporation, priority 2013, dated 2019)
# What was measured:
# Assay in all cases: Test E preemergence herbicide test
# Set-up in all cases: key: 0 = no effect, 100 = complete control
# [1] = test system: corn; assay type: in vivo, Zea mays
# From the text: (§1) Seeds of plant species selected from corn (Zea mays), soybean (Glycine max), velvetleaf (Abutilon theophrasti), lambsquarters (Chenopodium album), wild poinsettia (Euphorbia heterophylla), pigweed, palmer (palmer pigweed, Amaranthus palmeri), waterhemp (common waterhemp, Amaranthus rudis), surinam grass (Brachiaria decumbens), crabgrass, large (large crabgrass, Digitaria sanguinalis), crabgrass, Brazil (Brazilian crabgrass, Digitaria horizontalis), panicum, fall (fall panicum, Panicum dichotomiflorum), foxtail, giant (giant foxtail, Setaria faberii), foxtail, green (green foxtail, Setaria viridis), goosegrass (Eleusine indica), johnsongrass (Sorghum halepense), ragweed (common ragweed, Ambrosia elatior), barnyardgrass (Echinochloa crus-galli), sandbur (southern sandbur, Cenchrus echinatus), arrowleaf […] rhombifolia), ryegrass, Italian (Italian ryegrass, Lolium multiflorum), dayflower, VA (Virginia dayflower, Commelina virginica), field bindweed (Convolvulus arvensis), morningglory (Ipomoea coccinea), nightshade (eastern black nightshade, Solanum ptycanthum), kochia (Kochia scoparia), nutsedge, yellow (yellow nutsedge, Cyperus esculentus), cocklebur (common cocklebur, Xanthium strumarium), smartweed (ladysthumb smartweed, Polygonum Persicaria) and beggarticks (hairy beggarticks, Bidens pilosa), were planted into a silt loam soil and treated preemergence with test chemicals formulated in a non-phytotoxic solvent mixture which included a surfactant. Treated plants and controls were maintained in a greenhouse for 21 days, after which time all species were compared to controls and visually evaluated. Plant response ratings, summarized in Table E, are based on a scale of 0 to 100 where 0 is no effect and 100 is complete control. A dash (-) response means no test result.
# [2] = test system: soybean; assay type: in vivo, Glycine max
# From the text: as §1
# [3] = test system: surinam grass; assay type: in vivo, Brachiaria decumbens
# From the text: as §1
# [4] = test system: foxtail, giant; assay type: in vivo, Setaria faberii
# From the text: as §1
# [5] = test system: nutsedge, yellow; assay type: in vivo, Cyperus esculentus
# From the text: as §1
compound,measurement,setting,value
O=C1NCC(c2ccc(F)cc2)C1C(=O)Nc1ccccc1F (racemic) [Compound 16],"Plant response rating, Corn",[1]; 16 g ai/ha,0
same,"Plant response rating, Corn",[1]; 31 g ai/ha,0
same,"Plant response rating, Corn",[1]; 62 g ai/ha,0
same,"Plant response rating, Corn",[1]; 125 g ai/ha,0
same,"Plant response rating, Corn",[1]; 250 g ai/ha,0
same,"Plant response rating, Soybean",[2]; 16 g ai/ha,0
same,"Plant response rating, Soybean",[2]; 31 g ai/ha,0
same,"Plant response rating, Soybean",[2]; 62 g ai/ha,0
same,"Plant response rating, Soybean",[2]; 125 g ai/ha,0
same,"Plant response rating, Soybean",[2]; 250 g ai/ha,0
same,"Plant response rating, Surinam Grass",[3]; 16 g ai/ha,0
same,"Plant response rating, Surinam Grass",[3]; 31 g ai/ha,0
same,"Plant response rating, Surinam Grass",[3]; 62 g ai/ha,20
same,"Plant response rating, Surinam Grass",[3]; 125 g ai/ha,35
same,"Plant response rating, Surinam Grass",[3]; 250 g ai/ha,60
same,"Plant response rating, Foxtail, Giant",[4]; 16 g ai/ha,0
same,"Plant response rating, Foxtail, Giant",[4]; 31 g ai/ha,0
same,"Plant response rating, Foxtail, Giant",[4]; 62 g ai/ha,15
same,"Plant response rating, Foxtail, Giant",[4]; 125 g ai/ha,25
same,"Plant response rating, Foxtail, Giant",[4]; 250 g ai/ha,95
same,"Plant response rating, Nutsedge, Yellow",[5]; 16 g ai/ha,0
same,"Plant response rating, Nutsedge, Yellow",[5]; 31 g ai/ha,0
same,"Plant response rating, Nutsedge, Yellow",[5]; 62 g ai/ha,0
same,"Plant response rating, Nutsedge, Yellow",[5]; 125 g ai/ha,0
same,"Plant response rating, Nutsedge, Yellow",[5]; 250 g ai/ha,0
O=C1NCC(c2cccc(Br)c2)C1C(=O)Nc1ccccc1F (stereo not drawn) [Compound 66],"Plant response rating, Corn",[1]; 16 g ai/ha,0
same,"Plant response rating, Corn",[1]; 31 g ai/ha,0
same,"Plant response rating, Corn",[1]; 62 g ai/ha,0
same,"Plant response rating, Corn",[1]; 125 g ai/ha,0
same,"Plant response rating, Corn",[1]; 250 g ai/ha,0
same,"Plant response rating, Soybean",[2]; 16 g ai/ha,0
same,"Plant response rating, Soybean",[2]; 31 g ai/ha,0
same,"Plant response rating, Soybean",[2]; 62 g ai/ha,0
same,"Plant response rating, Soybean",[2]; 125 g ai/ha,0
same,"Plant response rating, Soybean",[2]; 250 g ai/ha,0
same,"Plant response rating, Surinam Grass",[3]; 16 g ai/ha,0
same,"Plant response rating, Surinam Grass",[3]; 31 g ai/ha,0
same,"Plant response rating, Surinam Grass",[3]; 62 g ai/ha,0
same,"Plant response rating, Surinam Grass",[3]; 125 g ai/ha,0
same,"Plant response rating, Surinam Grass",[3]; 250 g ai/ha,35
same,"Plant response rating, Foxtail, Giant",[4]; 16 g ai/ha,0
same,"Plant response rating, Foxtail, Giant",[4]; 31 g ai/ha,0
same,"Plant response rating, Foxtail, Giant",[4]; 62 g ai/ha,0
same,"Plant response rating, Foxtail, Giant",[4]; 125 g ai/ha,98
same,"Plant response rating, Nutsedge, Yellow",[5]; 16 g ai/ha,0
same,"Plant response rating, Nutsedge, Yellow",[5]; 31 g ai/ha,0
same,"Plant response rating, Nutsedge, Yellow",[5]; 62 g ai/ha,0
same,"Plant response rating, Nutsedge, Yellow",[5]; 125 g ai/ha,0
same,"Plant response rating, Nutsedge, Yellow",[5]; 250 g ai/ha,0
O=C1NCC(c2ccc(C(F)(F)F)cc2)C1C(=O)Nc1ccc(F)c(F)c1F (stereo not drawn) [Compound 232],"Plant response rating, Corn",[1]; 31 g ai/ha,0
same,"Plant response rating, Corn",[1]; 62 g ai/ha,0
same,"Plant response rating, Corn",[1]; 125 g ai/ha,0
same,"Plant response rating, Corn",[1]; 250 g ai/ha,0
same,"Plant response rating, Soybean",[2]; 31 g ai/ha,0
same,"Plant response rating, Soybean",[2]; 62 g ai/ha,0
same,"Plant response rating, Soybean",[2]; 125 g ai/ha,0
same,"Plant response rating, Soybean",[2]; 250 g ai/ha,0
same,"Plant response rating, Surinam Grass",[3]; 31 g ai/ha,40
same,"Plant response rating, Surinam Grass",[3]; 62 g ai/ha,50
same,"Plant response rating, Surinam Grass",[3]; 125 g ai/ha,70
same,"Plant response rating, Surinam Grass",[3]; 250 g ai/ha,98
same,"Plant response rating, Foxtail, Giant",[4]; 31 g ai/ha,35
same,"Plant response rating, Foxtail, Giant",[4]; 62 g ai/ha,90
same,"Plant response rating, Foxtail, Giant",[4]; 125 g ai/ha,95
same,"Plant response rating, Foxtail, Giant",[4]; 250 g ai/ha,98
same,"Plant response rating, Nutsedge, Yellow",[5]; 31 g ai/ha,0
same,"Plant response rating, Nutsedge, Yellow",[5]; 62 g ai/ha,0
same,"Plant response rating, Nutsedge, Yellow",[5]; 125 g ai/ha,0
same,"Plant response rating, Nutsedge, Yellow",[5]; 250 g ai/ha,0
